Test results taken from ChEMBL document CHEMBL5126526, “Non-nucleoside structured compounds with antiviral activity-past 10 years (2010-2020)” (2022).

Tested on: Influenza A virus
Experiment: Antiviral activity against influenza A virus (A/California/04/2009 (H1N1pdm)) infected in BALB/c mouse assessed as fold reduction in viral titers in lung homogenates at 20 mg/kg per day, po BID treated 2 hrs prior to viral infection followed by compound redosing at 12 hrs for 6 days
Assay type: functional

In the case of `O=C(O)[C@H]1C2CCC(CC2)[C@@H]1Nc1nc(-c2c[nH]c3ncc(F)cc23)ncc1F` [PIMODIVIR], the “fold change (FC)” value is reported as 100.
